Assay results from ChEMBL document CHEMBL1201862, “PubChem BioAssay data set” (2004).
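Grown in 96-well plates, cells were treated for 48 hours with each compound at five concentrations. Insufficient inhibition: endpoint recorded as highest concentration tested. Abbreviation: GI50, concentration required for 50% inhibition of growth.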 Active and inactive are the calls of the source. No stated cut-off is given here; in the data, active = GI50 up to about 1.1 µM and inactive = higher.

Columns and labels:
Experiment in all cases: inhibition of tumour cell growth, NCI panel, 48 h
SW-620 = system: SW-620
SF-268 = system: SF-268
DU-145 = system: DU-145
LOX IMVI = system: LOX IMVI
Malme-3M = system: Malme-3M
BT-549 = system: BT-549
RXF 393 = system: RXF 393
MDA-N = system: MDA-N
M14 = system: M14
NCI-H226 = system: NCI-H226
SK-MEL-2 = system: SK-MEL-2
OVCAR-5 = system: OVCAR-5
NCI-H23 = system: NCI-H23
MCF7 = system: MCF7
ACHN = system: ACHN
IGROV-1 = system: IGROV-1
CCRF-CEM = system: CCRF-CEM
HCT-116 = system: HCT-116
SF-295 = system: SF-295
SNB-19 = system: SNB-19
MDA-MB-435 = system: MDA-MB-435
HOP-92 = system: HOP-92
UACC-257 = system: UACC-257
U-251 = system: U-251
SN12C = system: SN12C
SNB-75 = system: SNB-75
HT-29 = system: HT-29
KM12 = system: KM12
UO-31 = system: UO-31
MOLT-4 = system: MOLT-4
SK-OV-3 = system: SK-OV-3
HL-60 = system: HL-60
T47D = system: T47D
NCI-H460 = system: NCI-H460
PC-3 = system: PC-3
OVCAR-3 = system: OVCAR-3
MDA-MB-231 = system: MDA-MB-231
A498 = system: A498
Hs-578T = system: Hs-578T
SK-MEL-28 = system: SK-MEL-28
EKVX = system: EKVX
SK-MEL-5 = system: SK-MEL-5
786-0 = system: 786-0
K562 = system: K562
HCC 2998 = system: HCC 2998
A549 = system: A549
NCI/ADR-RES = system: NCI/ADR-RES
OVCAR-4 = system: OVCAR-4
COLO 205 = system: COLO 205
TK-10 = system: TK-10
UACC-62 = system: UACC-62
NCI-H522 = system: NCI-H522
OVCAR-8 = system: OVCAR-8
HOP-62 = system: HOP-62
CAKI-1 = system: CAKI-1
HCT-15 = system: HCT-15
RPMI-8226 = system: RPMI-8226
SF-539 = system: SF-539

How did the GI50 (SW-620) turn out when COC(=O)c1ccccc1C1CN=NC12Cc1c(ccc(C)c1C)C2=O (stereo unspecified) was run?
Its GI50 is > 100 µM (inactive).

What about the GI50 (SF-268) of the same compound?
The GI50 was 39.1 µM (inactive).

What about the GI50 (DU-145) of the same compound?
The GI50 was > 100 µM (inactive).

What about the GI50 (LOX IMVI) of the same compound?
Its GI50 is > 100 µM (inactive).

And the GI50 (Malme-3M)?
Its GI50 is > 100 µM (inactive).

What about the GI50 (BT-549) of the same compound?
Its GI50 is > 100 µM (inactive).

And the GI50 (RXF 393)?
The GI50 was > 100 µM (inactive).

What about the GI50 (MDA-N) of the same compound?
Its GI50 is > 100 µM (inactive).

What about the GI50 (M14) of the same compound?
The GI50 was > 100 µM (inactive).

What about the GI50 (NCI-H226) of the same compound?
The GI50 was > 100 µM (inactive).

And the GI50 (SK-MEL-2)?
The GI50 was > 100 µM (inactive).

What about the GI50 (OVCAR-5) of the same compound?
The GI50 was > 100 µM (inactive).

What about the GI50 (NCI-H23) of the same compound?
The GI50 was > 100 µM (inactive).

What about the GI50 (MCF7) of the same compound?
The GI50 was > 100 µM (inactive).

And the GI50 (ACHN)?
The GI50 was > 100 µM (inactive).

What about the GI50 (IGROV-1) of the same compound?
The GI50 was > 100 µM (inactive).

What about the GI50 (CCRF-CEM) of the same compound?
Its GI50 is > 100 µM (inactive).

What about the GI50 (HCT-116) of the same compound?
The GI50 was > 100 µM (inactive).

What about the GI50 (SF-295) of the same compound?
The GI50 was > 100 µM (inactive).

What about the GI50 (SNB-19) of the same compound?
The GI50 was 85.9 µM (inactive).

What about the GI50 (MDA-MB-435) of the same compound?
Its GI50 is > 100 µM (inactive).

What about the GI50 (HOP-92) of the same compound?
The GI50 was 21.3 µM (inactive).

What about the GI50 (UACC-257) of the same compound?
The GI50 was > 100 µM (inactive).

What about the GI50 (U-251) of the same compound?
Its GI50 is 48.3 µM (inactive).

What about the GI50 (SN12C) of the same compound?
The GI50 was > 100 µM (inactive).

And the GI50 (SNB-75)?
Its GI50 is 22 µM (inactive).

And the GI50 (HT-29)?
The GI50 was > 100 µM (inactive).

What about the GI50 (KM12) of the same compound?
The GI50 was > 100 µM (inactive).

And the GI50 (UO-31)?
Its GI50 is > 100 µM (inactive).

What about the GI50 (MOLT-4) of the same compound?
Its GI50 is > 100 µM (inactive).

And the GI50 (SK-OV-3)?
The GI50 was 72.8 µM (inactive).

And the GI50 (HL-60)?
Its GI50 is > 100 µM (inactive).

What about the GI50 (T47D) of the same compound?
The GI50 was > 100 µM (inactive).

And the GI50 (NCI-H460)?
The GI50 was > 100 µM (inactive).

What about the GI50 (PC-3) of the same compound?
The GI50 was 90.6 µM (inactive).

And the GI50 (OVCAR-3)?
Its GI50 is 45.7 µM (inactive).

And the GI50 (MDA-MB-231)?
The GI50 was 81.5 µM (inactive).

What about the GI50 (A498) of the same compound?
The GI50 was > 100 µM (inactive).

What about the GI50 (Hs-578T) of the same compound?
The GI50 was 80.9 µM (inactive).

What about the GI50 (SK-MEL-28) of the same compound?
Its GI50 is > 100 µM (inactive).

And the GI50 (EKVX)?
Its GI50 is > 100 µM (inactive).

And the GI50 (SK-MEL-5)?
Its GI50 is > 100 µM (inactive).

What about the GI50 (786-0) of the same compound?
Its GI50 is 38.4 µM (inactive).

And the GI50 (K562)?
The GI50 was > 100 µM (inactive).

What about the GI50 (HCC 2998) of the same compound?
The GI50 was > 100 µM (inactive).

And the GI50 (A549)?
The GI50 was > 100 µM (inactive).

And the GI50 (NCI/ADR-RES)?
The GI50 was > 100 µM (inactive).

What about the GI50 (OVCAR-4) of the same compound?
The GI50 was 42.3 µM (inactive).

And the GI50 (COLO 205)?
Its GI50 is > 100 µM (inactive).

What about the GI50 (TK-10) of the same compound?
Its GI50 is > 100 µM (inactive).

What about the GI50 (UACC-62) of the same compound?
Its GI50 is > 100 µM (inactive).

What about the GI50 (NCI-H522) of the same compound?
Its GI50 is > 100 µM (inactive).

And the GI50 (OVCAR-8)?
Its GI50 is 61.1 µM (inactive).

And the GI50 (HOP-62)?
The GI50 was 57.3 µM (inactive).

And the GI50 (CAKI-1)?
Its GI50 is > 100 µM (inactive).

And the GI50 (HCT-15)?
Its GI50 is greater than 100 µM.

What does the source list for CC(C)=CCC/C(C)=C/CO [GERANIOL]?
GI50 (SW-620): > 100 µM (inactive); GI50 (SF-268): > 100 µM (inactive); GI50 (DU-145): > 100 µM (inactive); GI50 (LOX IMVI): > 100 µM (inactive); GI50 (Malme-3M): > 100 µM (inactive); GI50 (BT-549): > 100 µM (inactive); GI50 (MDA-N): > 100 µM (inactive); GI50 (M14): > 100 µM (inactive); GI50 (NCI-H226): > 100 µM (inactive); GI50 (SK-MEL-2): > 100 µM (inactive); GI50 (OVCAR-5): > 100 µM (inactive); GI50 (NCI-H23): > 100 µM (inactive); GI50 (MCF7): > 100 µM (inactive); GI50 (ACHN): > 100 µM (inactive); GI50 (IGROV-1): > 100 µM (inactive); GI50 (CCRF-CEM): > 100 µM (inactive); GI50 (HCT-116): > 100 µM (inactive); GI50 (SF-295): > 100 µM (inactive); GI50 (SNB-19): > 100 µM (inactive); GI50 (MDA-MB-435): > 100 µM (inactive); GI50 (UACC-257): > 100 µM (inactive); GI50 (U-251): > 100 µM (inactive); GI50 (SN12C): > 100 µM (inactive); GI50 (HT-29): > 100 µM (inactive); GI50 (KM12): > 100 µM (inactive); GI50 (UO-31): > 100 µM (inactive); GI50 (MOLT-4): > 100 µM (inactive); GI50 (SK-OV-3): > 100 µM (inactive); GI50 (HL-60): > 100 µM (inactive); GI50 (T47D): > 100 µM (inactive); GI50 (NCI-H460): > 100 µM (inactive); GI50 (PC-3): > 100 µM (inactive); GI50 (OVCAR-3): > 100 µM (inactive); GI50 (MDA-MB-231): > 100 µM (inactive); GI50 (A498): > 100 µM (inactive); GI50 (Hs-578T): > 100 µM (inactive); GI50 (RPMI-8226): > 100 µM (inactive); GI50 (SK-MEL-28): > 100 µM (inactive); GI50 (EKVX): > 100 µM (inactive); GI50 (SK-MEL-5): > 100 µM (inactive); GI50 (SF-539): > 100 µM (inactive); GI50 (786-0): > 100 µM (inactive); GI50 (K562): > 100 µM (inactive); GI50 (HCC 2998): > 100 µM (inactive); GI50 (A549): > 100 µM (inactive); GI50 (NCI/ADR-RES): > 100 µM (inactive); GI50 (OVCAR-4): > 100 µM (inactive); GI50 (COLO 205): > 100 µM (inactive); GI50 (TK-10): > 100 µM (inactive); GI50 (UACC-62): > 100 µM (inactive); GI50 (NCI-H522): > 100 µM (inactive); GI50 (OVCAR-8): > 100 µM (inactive); GI50 (HOP-62): > 100 µM (inactive); GI50 (CAKI-1): > 100 µM (inactive); GI50 (HCT-15): > 100 µM
